Data set [1] deals with DSS-induced ulcerative colitis model, large intestine tissue. Kind of data set: Histopathological evaluation of colon HE-stained specimens (Histological Colitis Score). The data set is classed as in vivo, Mouse. The settings on record: compared to the negative control; scores only in the FIGURE. As to the method:
A histopathological evaluation of the colon HE-stained specimens prepared in example 1 was performed. • 1. […] Histopathological evaluation • Blind evaluation of a pathology score was carried out in accordance with the scoring below for two pieces of the upper and lower parts of the large intestine for each specimen (36 pieces in total). Each score of (1), (2), (3) is multiplied by (4), and the total of these is defined as a “Histological Colitis Score.”^1) It should be noted that the lower part of the large intestine is located on the […], and • the upper part of the large intestine is located to the right thereof.
• 1) Dieleman LA., et al. Chronic experimental colitis induced by dextran sulfate sodium (DSS) is characterized by Th1 and Th2 cytokines. Clin Exp Immunol. 1998.

The subject of data set [2] is DSS-induced ulcerative colitis model. Description: Transanal administration experiment on DSS-induced ulcerative colitis model mice (DAI, body weight, large intestine length, general condition). The data set is classed as in vivo. As to the method: A mouse was made to drink an aqueous solution of 2.5 w/v % dextran sulfate sodium, and the efficacy of a specific peptide having the amino acid sequence indicated by SEQ ID NO 1 on the induced ulcerative colitis model is retrieved by Disease Activity Index. Similarly, Mucosta (registered trademark) and Selbex (registered trademark), which are therapeutic agents for duodenal ulcers, were administered alone or in combination with a peptide having the amino acid sequence indicated by SEQ ID NO 1, and Pentasa (registered trademark) and Rectabul (registered trademark), which are therapeutic agents for ulcerative colitis, were administered alone to compare and study the efficacy. Furthermore, the plasma and removed large intestine collected on the final day of the experiment were shipped to a test contractor. • Dextran sulfate sodium aqueous solution drink period (preparation of dextran sulfate sodium-induced ulcerative colitis model): • Nov. 16, 2019 to Nov. 25, 2019 • Administration period: Nov. 22, 2019 to Nov. 24, 2019 • Disease Activity Index (DAI: Evaluation of body weight, properties, and occult blood): • November 16, November 22, and Nov. 25, 2019 • Blood collected: Nov. 25, 2019 • Large intestine removed and length measured: • Nov. 25, 2019 • Experiment end date: Nov. 25, 2019
• Species: Mouse (SPF) • Strain: BALB/cAnNCrlCrlj • Source: Charles River Laboratories Japan (Atsugi Breeding Center) • Reason for selection of the test system: The mouse strain is widely used for toxicity and drug efficacy tests. • Sex and order (purchase) count: Male: 60 • Age at purchase: 9 weeks • Quarantine and habituation: Quarantine was carried out for six days from the date of animal purchase. During the quarantine period, the general condition was observed daily and body weight was measured on the 1st day (purchase date), 3rd day, and 7th day (quarantine end date). In addition, the habituation period was from the date of animal purchase to the day before the start of drinking the DSS aqueous solution, the general condition was also observed once a day after the quarantine period, and body weight was measured on a grouping day. • Age at the start of test substance administration: 11 weeks
• Administration method: Performed under anesthesia by inhalation of Japanese pharmacopeia isoflurane (Mylan Inc., hereinafter abbreviated as isoflurane). • If there is a clot of feces in the rectum, the animal was massaged, and the feces were removed as much as possible. • The administration solution was aspirated into a 1 mL polypropylene syringe cylinder (sterilized disposable product), inserted through the anus part using a mouse sonde (about 1 cm from the tip), and slowly administered transanally. […] Then, it was slowly pulled out and liquid that leaked from the anus part was wiped off. It should be noted that mixing was performed by lightly inverting by hand so that the test substance administration solution and the Rectabul administration solution would not have large bubbles as much as possible and so that the other comparative control substance administration solution would not foam up, and then each solution was aspirated into the syringe cylinder. • Amount of administration liquid: 0.7 mL • Reason for selection: The method of administration to mice is common and appropriate.
• Animal subjects: All test animals after grouping (excluding non-treatment group) • Model production period: Day 1-10 • Model production method: On the day that drinking of the DSS aqueous started (between 13:00 and 14:00), the water in the glass or polycarbonate water dispenser installed in the cage was changed to a DSS 2.5 w/v % aqueous solution, and the solution was freely ingested. […]

The mark [3] stands for this setting: Day 10, transanal 0.7 mL/head on Days 7-9.
The mark [4] stands for this setting: observation period, considered due to progress of DSS colitis.

Turning to RADARADARADARADA, the “histological score: suppression of intestinal tissue inflammation” value in data set [1] is listed as “had an effect of suppressing intestinal tissue inflammation compared to the negative control”. The “average DAI score, Day 7” value in data set [2] (Day 7 of DSS 2.5 w/v % drinking (first treatment day), group average, 0.7 mL/head transanal once a day on Days 7, 8, 9) was 2.8. In addition, the “cases scoring 1 "+" for fecal occult blood (visual)” value in data set [2] (Day 10) is on record as “one case”. In data set [2] (setting [3]), the “length of the large intestine, end part of the ileum to just before the rectum (average)” value turned out to be 45.52 mm and the “length of the large intestine, end part of the ileum to the anus part (average)” value was found to be 75.71 mm. In addition, the “average DAI score, Day 10” value in data set [2] (Day 10 of DSS drinking, after transanal 0.7 mL/head on Days 7, 8, 9, group average) amounted to 2.8. Besides, in data set [2] (found dead on Day 10, cause considered progression of DSS-induced ulcerative colitis), the death result was “a death was observed”. In data set [2] (observation period), the “general condition: anal bleeding (cases)” value is “one case”, the “general condition: black stool (cases)” value is “one case”, the “general condition: perianal hair stains (pale red) (cases)” value was “one case” and the “general condition: piloerection (cases)” value is on record as “one case”. Further, in data set [2] (setting [4]), the “general condition: irregular respiration (cases)” value is listed as “one to three cases” and the “general condition: small amount of defecation (cases of 5 animals)” value was “one to three cases”. The “DAI score on Day 10 compared to Day 7” value in data set [2] (result in words, control group increased) is recorded as “did not increase compared to Day 7”. The “body weight loss on Day 10 compared to Day 7” value in data set [2] (result in words, control group lost further weight) is reported as “no further body weight loss was observed compared to Day 7”.
